Where “and” joins values, the source holds several entries; their conditions need not be identical. Identical values can stand only once. Entries after “also recorded” stand apart in the source; their conditions may differ.
How the values were obtained:
Assay type in all cases: physicochemical
[1] = Fluidity test: angle of repose measurement
Procedure: (1) Angle of Repose Measurement
An iron stand configured to measure the angle of repose is placed in a horizontal position, a funnel is fixed on the iron stand, and a plastic receiving container is placed directly under the funnel. The crystal form I is added to the funnel to make the material flow down slowly from the funnel to form a cone shape. The height of the bottom of the funnel and the top of the flowed-down material is maintained at a height of about 2-4 cm. The measurement is repeated 5 times to calculate the average value.

[2] = Fluidity test: bulk density and tap density determination
Procedure: (2) Bulk Density and Tap Density Determination
The crystal form I is added to a measuring cylinder, and the weight and volume of the material added are calculated. A densitometer is used to tap and record the volume of the material after tapping.

[3] = Moisture absorption determination according to the Pharmacopoeia
Procedure: In this embodiment, the moisture absorption of crystal form I is investigated according to the Pharmacopoeia, and the details are as follows: • (1) 2 dry glass weighing bottles with stoppers (outer diameter of 50 mm, height of 30 mm) are taken and placed in a desiccator where a saturated solution of ammonium chloride is placed in a lower part. The weighing bottles are placed with open lips, the lid of the desiccator is closed, and the desiccator is placed in a constant temperature room at 25° C. and left overnight. • (2) after left overnight, the weighing bottles are taken out and accurately weighted, results of which are m1 1 and m1 2 respectively. • (3) an appropriate amount of the API sample is taken and laid flat in a weighed weighing bottle (the thickness of the sample is about 1 mm), and accurately weighted, results of which are m2 1 and m2 2 respectively. • (4) the weighing bottles are placed with open lips and placed with the bottle caps in the desiccator with the saturated solution of ammonium chloride in the lower part, the lid of the desiccator is closed, and the desiccator is placed in a thermostat at 25° C. for 24 hours. • (5) after leaving for 24 hours, the weighing bottles are capped and accurately weighted, results of which are m3 1 and m3 2 respectively. • (6) the calculation formula for moisture absorption weight gain is as follows: Weight gain percentage=100%×(m3−m2)/(m2−m1)

[4] = Two-week solid-state stability determination (XRPD and HPLC); details: 2 weeks; for Purity after storage: HPLC, initial purity 99.72%; for Stability of crystalline shape: XRPD
Excerpt: […] Samples are taken after 2 weeks to test the stability of the samples by XRPD and HPLC.

## O=C1/C(=C/c2ccccc2C(F)(F)F)CCC/C1=C\c1ccccc1C(F)(F)F [crystal form I]
[1]; average of 5 repeated measurements
  angle of repose, Average value: 41.80 °
[1]; judgement in words
  fluidity: good fluidity; also recorded: acceptable
[1]; single measurements 1 to 5, funnel method
  angle of repose: 41.30° and 40.86° and 42.93° and 41.87° and 42.02°
[2]; (tap density − bulk density)/tap density × 100
  Carr index: 21.60
[2]; M 29.85 g, V 44.0 mL
  ρ (bulk density): 0.678 g/mL
[2]; M 29.85 g, V-tapped 34.5 mL
  ρ-tapped (tap density): 0.865 g/mL
[2]; judgement in words
  fluidity (from Carr index): good fluidity
[3]; 25° C., saturated ammonium chloride solution desiccator, 24 hours, average of 2
  Weight gain percentage, Average value: 0.16%
[3]; 25° C., saturated ammonium chloride solution desiccator, 24 hours, listed as C66-HC-006-13-06
  Weight gain percentage (moisture absorption): 0.17% and 0.15%
[3]; judgement in words
  moisture absorption: no or almost no moisture absorption
[4]; 25° C./60% RH/60% RH
  Purity after storage: 99.70%
  Stability of crystalline shape: YES
[4]; 25° C./92.5% RH
  Purity after storage: 99.72%
  Stability of crystalline shape: YES
[4]; 40° C./75% RH
  Purity after storage: 99.70%
  Stability of crystalline shape: YES
[4]; 60° C./75% RH
  Purity after storage: 99.68%
  Stability of crystalline shape: YES
[4]; all storage conditions
  change of purity on storage: does not change significantly
  stability of crystal form: remains stable

From patent US12540112B2, “Crystal form I of curcumin derivative, preparation method therefor and application thereof” (WENZHOU MEDICAL UNIVERSITY, priority 2019, dated 2026)
